Data taken from patent US20090176817A1, “Method of Treatment of Diarrhea-Predominant Irritable Bowel Syndrome in a Subject” (priority 2005, published 2009).

Tested on: diarrhea-predominant IBS subjects
Experiment: Study S241.3.006: weekly diary questions on adequate relief
Type: in vivo, human
Description: The study was conducted in 129 study centers in the United States. At total of 2080 subjects consented to participate, and 711 subjects were randomized. A total of 692 subjects were analyzed for efficacy and 701 subjects were analyzed for safety. Diagnosis and main criteria for inclusion were IBS subjects satisfying the Rome I criteria (1992); the diarrhea predominant sub-population of the Rome II criteria; and a minimum abdominal pain/discomfort, stool frequency and consistency determined during the run-in period. Subjects were treated with cilansetron 2 mg tablets given orally TID or matching placebo tablets given orally TID for 12 weeks double-blind treatment.
The primary efficacy parameter was the number of months that a subject was a responder for IBS symptoms (abdominal pain, abdominal discomfort, abnormal bowel habits) over the 12-week treatment period. A responder for a month (monthly responder) was defined as a subject who answered the weekly question with “yes” at least twice for that month.
Studies S24 1.3.OO6, S24 1.3.0 1 1, and S24 1.3.009 used the following efficacy measurements: • The subjects answered the following three questions with “yes” or “no” using a phone diary at the end of each week: • a) During the last week, did you experience adequate relief of your IBS symptoms, such as abdominal pain, abdominal discomfort, abnormal bowel habits? • b) During the last week, did you experience adequate relief of your abdominal pain and/or discomfort? • c) During the last week, did you experience adequate relief of your abnormal bowel habits? • The subjects rated the following symptoms using the phone diary at the end of each day: • abdominal pain/discomfort (five-point scale); • stool consistency (seven-point Bristol Stool Scale); • stool frequency (number of bowel movements each day); • urgency (five-point scale); • straining (yes or no); • feeling of incomplete defecation (yes or no); • bloating or feeling of abdominal distension (five-point scale). • In Studies S241 A006 and S241.3.009, subjects completed the IBS-QOL Survey at Baseline (Day 1) and at the end of treatment. In Study S24 1.3.0 1 1, subjects completed the IBS-QOL Survey at Baseline (Day 1), at the end of the three-month treatment period, and at the end of rerandomized treatment.
In all three pivotal efficacy studies, the primary and main secondary efficacy parameters were based on the weekly diary questions on adequate relief and included the following: • 1. Number of months (one month equals four weeks) that a subject was a responder for the weekly diary questions on adequate relief. A responder for a month (monthly responder) was defined as a subject who answered the weekly question with “yes” at least twice for that month. For Studies S241.3.006 and S241.3.011, the primary efficacy parameter was the number of months that a subject was a responder for IBS symptoms during the 12-week treatment period. The two main secondary efficacy parameters were the number of months that a subject was a responder for abdominal pain/discomfort and abnormal bowel habits during the 12-week treatment period. For Study S241.3.009, the number of months that a subject was a responder for the weekly diary questions on adequate relief during Months 1 to 3 (the first 12 weeks) and Months 1 to 6 (24-week) was an additional key secondary efficacy parameter. • 2. Overall responder rate for the weekly diary questions on adequate relief. A responder was defined as a subject who answered the weekly question with “yes” for at least half of the answers available with a minimum of four weeks treatment duration. If a subject had less than four weeks treatment duration, the subject was considered a non-responder. The overall responder rate was the percentage of responders within a treatment group. For Study S241.3.009, the primary efficacy parameter was the overall responder rate for IBS symptoms during the 26-week treatment period. […]

[1] = 2 mg TID, monthly LOCF, ITT N = 344
[2] = 2 mg TID, three-month treatment period, monthly LOCF, ITT N = 344
[3] = 2 mg TID, three-month treatment period, observed case, ITT N = 344
[4] = Baseline BMI: <30 kg/m^2, three-month treatment period, monthly LOCF, ITT, 2 mg TID
[5] = Baseline BMI: ≧30 kg/m^2, three-month treatment period, monthly LOCF, ITT, 2 mg TID
[6] = Baseline severity of IBS: non-severe, three-month treatment period, monthly LOCF, ITT, 2 mg TID
[7] = Baseline severity of IBS: non-severe, three-month treatment period, observed case, ITT, 2 mg TID
[8] = Baseline severity of IBS: severe, three-month treatment period, monthly LOCF, ITT, 2 mg TID
[9] = Baseline severity of IBS: severe, three-month treatment period, observed case, ITT, 2 mg TID

## Cc1nccn1C[C@H]1CCc2c(c3cccc4c3n2CCC4)C1=O [Cilansetron, (R)-(−)-4,5,6,8,9,10-hexahydro-10-[(2-methyl-1H-imidazol-1-yl)methyl]-11H-pyrido-[3,2,1-jk]-carbazol-11-one]
2 mg TID, 3 months
  Responders for one month, IBS symptoms: 13%
  Responders for one month, abdominal pain/discomfort: 12%
  Responders for one month, abnormal bowel habits: 12%
  Responders for three months, IBS symptoms: 35%
  Responders for three months, abdominal pain/discomfort: 40%
  Responders for three months, abnormal bowel habits: 38%
  Responders for two months, IBS symptoms: 15%
  Responders for two months, abdominal pain/discomfort: 14%
  Responders for two months, abnormal bowel habits: 15%
  Responders for zero months, IBS symptoms: 37%
  Responders for zero months, abdominal pain/discomfort: 34%
  Responders for zero months, abnormal bowel habits: 36%
[1]
  Responder rate, adequate relief of IBS symptoms, Each month of Months 1 to 3: 119 (35) n (%)
  Responder rate, adequate relief of IBS symptoms, Month 1: 176 (51) n (%)
  Responder rate, adequate relief of IBS symptoms, Month 2: 163 (47) n (%)
  Responder rate, adequate relief of IBS symptoms, Month 3: 169 (49) n (%)
  Responder rate, adequate relief of abdominal pain/discomfort, Each month of Months 1 to 3: 139 (40) n (%)
  Responder rate, adequate relief of abdominal pain/discomfort, Month 1: 192 (56) n (%)
  Responder rate, adequate relief of abdominal pain/discomfort, Month 2: 178 (52) n (%)
  Responder rate, adequate relief of abdominal pain/discomfort, Month 3: 183 (53) n (%)
  Responder rate, adequate relief of abnormal bowel habits, Each month of Months 1 to 3: 129 (38) n (%)
  Responder rate, adequate relief of abnormal bowel habits, Month 1: 180 (52) n (%)
  Responder rate, adequate relief of abnormal bowel habits, Month 2: 178 (52) n (%)
  Responder rate, adequate relief of abnormal bowel habits, Month 3: 173 (50) n (%)
[2]
  Subjects who were responders for One month, adequate relief of IBS symptoms: 45 (13) n (%)
  Subjects who were responders for One month, adequate relief of abdominal pain/discomfort: 42 (12) n (%)
  Subjects who were responders for One month, adequate relief of abnormal bowel habits: 40 (12) n (%)
  Subjects who were responders for Three months, adequate relief of IBS symptoms: 119 (35) n (%)
  Subjects who were responders for Three months, adequate relief of abdominal pain/discomfort: 139 (40) n (%)
  Subjects who were responders for Three months, adequate relief of abnormal bowel habits: 129 (38) n (%)
  Subjects who were responders for Two months, adequate relief of IBS symptoms: 53 (15) n (%)
  Subjects who were responders for Two months, adequate relief of abdominal pain/discomfort: 47 (14) n (%)
  Subjects who were responders for Two months, adequate relief of abnormal bowel habits: 52 (15) n (%)
  Subjects who were responders for Zero months, adequate relief of IBS symptoms: 127 (37) n (%)
  Subjects who were responders for Zero months, adequate relief of abdominal pain/discomfort: 116 (34) n (%)
  Subjects who were responders for Zero months, adequate relief of abnormal bowel habits: 123 (36) n (%)
[3]
  Overall responder rate, adequate relief of IBS symptoms: 168 (49) n (%)
  Overall responder rate, adequate relief of abdominal pain/discomfort: 179 (52) n (%)
  Overall responder rate, adequate relief of abnormal bowel habits: 174 (51) n (%)
3 months
  Median adequate relief rate, IBS symptoms: 0.50
  Median adequate relief rate, abdominal pain/discomfort: 0.58
  Median adequate relief rate, abnormal bowel habits: 0.50
3 months, observed case, ITT
  Overall responder rate, IBS symptoms: 49%
  Overall responder rate, abdominal pain/discomfort: 52%
  Overall responder rate, abnormal bowel habits: 51%
[4]
  Number of months a subject was a responder: One month (Abdominal pain/discomfort): 26 (11) n (%)
  Number of months a subject was a responder: One month (Abnormal bowel habits): 27 (12) n (%)
  Number of months a subject was a responder: One month (IBS symptoms): 29 (13) n (%)
  Number of months a subject was a responder: Three months (Abdominal pain/discomfort): 96 (42) n (%)
  Number of months a subject was a responder: Three months (Abnormal bowel habits): 83 (36) n (%)
  Number of months a subject was a responder: Three months (IBS symptoms): 80 (35) n (%)
  Number of months a subject was a responder: Two months (Abdominal pain/discomfort): 29 (13) n (%)
  Number of months a subject was a responder: Two months (Abnormal bowel habits): 37 (16) n (%)
  Number of months a subject was a responder: Two months (IBS symptoms): 35 (15) n (%)
  Number of months a subject was a responder: Zero months (Abdominal pain/discomfort): 79 (34) n (%)
  Number of months a subject was a responder: Zero months (Abnormal bowel habits): 83 (36) n (%)
  Number of months a subject was a responder: Zero months (IBS symptoms): 86 (37) n (%)
[5]
  Number of months a subject was a responder: One month (Abdominal pain/discomfort): 16 (14) n (%)
  Number of months a subject was a responder: One month (Abnormal bowel habits): 13 (11) n (%)
  Number of months a subject was a responder: One month (IBS symptoms): 16 (14) n (%)
  Number of months a subject was a responder: Three months (Abdominal pain/discomfort): 43 (38) n (%)
  Number of months a subject was a responder: Three months (Abnormal bowel habits): 46 (40) n (%)
  Number of months a subject was a responder: Three months (IBS symptoms): 39 (34) n (%)
  Number of months a subject was a responder: Two months (Abdominal pain/discomfort): 18 (16) n (%)
  Number of months a subject was a responder: Two months (Abnormal bowel habits): 15 (13) n (%)
  Number of months a subject was a responder: Two months (IBS symptoms): 18 (16) n (%)
  Number of months a subject was a responder: Zero months (Abdominal pain/discomfort): 37 (32) n (%)
  Number of months a subject was a responder: Zero months (Abnormal bowel habits): 40 (35) n (%)
  Number of months a subject was a responder: Zero months (IBS symptoms): 41 (36) n (%)
[6]
  Number of months a subject was a responder: One month (Abdominal pain/discomfort): 9 (6) n (%)
  Number of months a subject was a responder: One month (Abnormal bowel habits): 16 (11) n (%)
  Number of months a subject was a responder: One month (IBS symptoms): 18 (12) n (%)
  Number of months a subject was a responder: Three months (Abdominal pain/discomfort): 72 (49) n (%)
  Number of months a subject was a responder: Three months (Abnormal bowel habits): 68 (46) n (%)
  Number of months a subject was a responder: Three months (IBS symptoms): 60 (41) n (%)
  Number of months a subject was a responder: Two months (Abdominal pain/discomfort): 25 (17) n (%)
  Number of months a subject was a responder: Two months (Abnormal bowel habits): 22 (15) n (%)
  Number of months a subject was a responder: Two months (IBS symptoms): 24 (16) n (%)
  Number of months a subject was a responder: Zero months (Abdominal pain/discomfort): 42 (28) n (%)
  Number of months a subject was a responder: Zero months (Abnormal bowel habits): 42 (28) n (%)
  Number of months a subject was a responder: Zero months (IBS symptoms): 46 (31) n (%)
[7]
  Overall responder rate, adequate relief of IBS symptoms: 81 (55) n (%)
  Overall responder rate, adequate relief of abdominal pain/discomfort: 89 (60) n (%)
  Overall responder rate, adequate relief of abnormal bowel habits: 84 (57) n (%)
[8]
  Number of months a subject was a responder: One month (Abdominal pain/discomfort): 33 (17) n (%)
  Number of months a subject was a responder: One month (Abnormal bowel habits): 24 (12) n (%)
  Number of months a subject was a responder: One month (IBS symptoms): 27 (14) n (%)
  Number of months a subject was a responder: Three months (Abdominal pain/discomfort): 67 (34) n (%)
  Number of months a subject was a responder: Three months (Abnormal bowel habits): 61 (31) n (%)
  Number of months a subject was a responder: Three months (IBS symptoms): 59 (30) n (%)
  Number of months a subject was a responder: Two months (Abdominal pain/discomfort): 22 (11) n (%)
  Number of months a subject was a responder: Two months (Abnormal bowel habits): 30 (15) n (%)
  Number of months a subject was a responder: Two months (IBS symptoms): 29 (15) n (%)
  Number of months a subject was a responder: Zero months (Abdominal pain/discomfort): 74 (38) n (%)
  Number of months a subject was a responder: Zero months (Abnormal bowel habits): 81 (41) n (%)
  Number of months a subject was a responder: Zero months (IBS symptoms): 81 (41) n (%)
[9]
  Overall responder rate, adequate relief of IBS symptoms: 87 (44) n (%)
  Overall responder rate, adequate relief of abdominal pain/discomfort: 90 (46) n (%)
